Measured values published in ChEMBL document CHEMBL1201862, “PubChem BioAssay data set” (2004).
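Interpolation was linear, between the two tested concentrations surrounding the appropriate level; five concentrations were tested over 48 hours in 96-well plates. GI50 is the concentration that inhibits growth by half.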 Calls of active or inactive are those of the source. Rule as the data show it: active = GI50 up to about 1.1 µM and inactive = higher.

Key:
Experiment in all cases: growth of human tumour cells (NCI), 48 h
[1] = test system: BT-549
[2] = test system: Hs-578T
[3] = test system: MDA-MB-231
[4] = test system: MDA-MB-435
[5] = test system: PC-3
[6] = test system: MDA-N
[7] = test system: T47D
[8] = test system: RXF 631

Measured: GI50

CC(=O)O[C@H]1CC[C@H]2[C@@H]3CCC(C(C)=O)[C@H](C(=O)O)[C@H]3CC[C@]12C (stereo partly drawn)
inactive: [1] > 100 µM | [2] > 100 µM | [3] > 100 µM | [4] > 100 µM | [5] > 100 µM

CCCCC(CC)C(=O)Oc1ccc(C(=O)c2ccccc2)c(O)c1 (stereo not drawn)
inactive: [1] 39.1 µM | [2] 20.6 µM | [3] > 100 µM | [4] 35.8 µM | [6] 41.4 µM | [5] 51.5 µM | [7] 45.7 µM

Nc1n[nH]c2c1Cc1c(n(Cc3ccc(Cl)cc3)c3ccccc13)C(=O)N2
inactive: [1] 16.5 µM | [2] 13.3 µM | [3] 14.4 µM | [4] 3.71 µM | [6] 2.78 µM | [5] 11.2 µM | [7] 12.3 µM

C=C1CC[C@@H](Br)C(C)(C)[C@]12CCC(C)(O)C(Cl)C2 (stereo partly drawn)
inactive: [8] 18.5 µM

CCOC(=O)/C=C1/C(CCCOCc2ccccc2)C2CCCC23CC2(CCN13)OCCO2 (stereo not drawn)
inactive: [8] 30.1 µM

CC1=C(SCCO)C(=O)c2ccccc2C1=O
inactive: [1] 17.8 µM | [2] 12.2 µM | [3] 13.7 µM | [4] 11.6 µM | [6] 5.09 µM | [5] 11.4 µM | [7] 3.21 µM
